Measured values: US20230123334A1, “AMINO LIPID COMPOUND, PREPARATION METHOD THEREFOR, AND APPLICATION THEREOF” (SHENZHEN SHENXIN BIOTECHNOLOGY CO., LTD., priority 2020, published 2023)

Test system: HEK293 cells
Assay: Preliminary screening as DNA vectors, GFP transfection of HEK293 cells
Assay type: cell-based
Procedure, shortened: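 HEK293 cells in DMEM/10% FBS transfected with 75 ng EGFP plasmid per well complexed with amino lipid/DOPE liposomes in pH 5.6 sodium acetate. Hoechst nuclear stain added 20-24 h post-transfection, then cells cultured another 20-24 h. Confocal imaging gives GFP-positive cells as % of total nuclei.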

[1] = amino lipid/DOPE liposome with 75 ng plasmid DNA (psin-EGFP-IRES-Puro), number of GFP-expressing cells divided by total nuclei (Hoechst)

Row | Structure (SMILES) | Absolute DNA transfection efficiency in HEK293 cells [1] | Absolute DNA transfection efficiency in HEK293 cells (HEK293 cells, lipid/DOPE liposome with 75 ng plasmid DNA (psin-EGFP-IRES-Puro), number of cells expressing GFP divided by total number of nuclei (Hoechst))
1 | CCCCCCCCSc1nc(NCCN(C)C)nc(SCCCCCCC)n1 [S7S8 D1] | 6.7% | –
2 | CCCCCCCCCCCCCCSc1nc(NCCCN(C)C)nc(SCCCCCC)n1 [S6S14 D6] | 21.9% | –
3 | CCCCCCCCCCCCCCCSc1nc(NCC2CCN(C)CC2)nc(SCCCCCCC)n1 [S7S15 D10] | 33.3% | –
4 | CCCCCCCCCCCCCCCNc1nc(NCC2CCN(C)CC2)nc(SCCCCCCC)n1 [S7N15 D10] | 30.9% | –
5 | CCCCCCCCNc1nc(NCCN2CCCCC2)nc(SCCCCCCC)n1 [S7N8 D4] | 15.5% | –
6 | CCCCCCCCCCCCCCCCNc1nc(NCCN(CC)CC)nc(SCCCCCCCCC)n1 [S9N16 D7] | 6.4% | –
7 | CCCCCCCCCCCCCCCCCCNc1nc(NCCN(CC)CC)nc(SCCCCCCCCCCCCCCCC)n1 [S16N18 D7] | 0.0% | –
8 | CCCCCCCCCCCCCCCCSc1nc(NCCCCCCCCCCCCCCC)nc(NCCN(CC)CC)n1 [S16N15 D7] | 0.6% | –
9 | CCCCCCCCCCCCCCCCCCSc1nc(NCCCCCCCCCCCCC)nc(NCCCN2CCN(C)CC2)n1 [S18N13 D9] | 1.8% | –
10 | CCCCCCCCCCCCCCCCSc1nc(NCCCCCCCCCCC)nc(NCCCN(C)C)n1 [S16N11 D6] | 10.3% | –
11 | CCCCCCCCCCCNc1nc(NCCN2CCCC2)nc(SCCCCCCCCC)n1 [S9N11 D3] | 43.4% | –
12 | CCCCCCCCCCCCCCCCSc1nc(NCCCCCCCC)nc(NCCN2CCCCC2)n1 [S16N8 D4] | 8.4% | –
13 | CCCCCCCCCCCCCCCNc1nc(NCCN2CCCC2)nc(SCCCCCCCCCC)n1 [S10N15 D3] | 11.5% | –
14 | CCCCCCCCCCCCCCCCNc1nc(NCCN2CCCCC2)nc(SCCCCCCCCCCCCCCCC)n1 [S16N16 D4] | 3.4% | –
15 | CCCCCCCCCCCCCCCSc1nc(NCCCCCCCCC)nc(NCCN2CCN(C)CC2)n1 [S15N9 D5] | 17.5% | –
16 | CCCCCCCCCCCCN(CCCCCCCCCCCC)c1nc(NCC2CCN(C)CC2)nc(SCCCCCCCCCCC)n1 [S11^2N12 D10] | 0.0% | –
17 | CCCCCCCCCCCCCCCCNc1nc(NCCN2CCOCC2)nc(SCCCCCC)n1 [S6N16 D2] | 1.4% | –
18 | CCCCCCCCCCCCCCCCNc1nc(NCCN2CCN(C)CC2)nc(SCCCCCCCCCCC)n1 [S11N16 D5] | 6.8% | –
19 | CCCCCCCCCCCCCCCCCCNc1nc(NCCCN2CCOCC2)nc(SCCCCCCCCCCCCCC)n1 [S14N18 D8] | 0.1% | –
20 | CCCCCCCCCCCSc1nc(NCCN2CCCC2)nc(SCCCCCC)n1 [S6S11 D3] | 12.4% | –
21 | CCCCCCCCCCCSc1nc(NCCCN(C)C)nc(SCCCCCCC)n1 [S7S11 D6] | 28.7% | –
22 | CCCCCCCCCCCCCCCCSc1nc(NCCCCCCCCC)nc(NCCN(C)C)n1 [S16N9 D1] | 7.5% | –
23 | CCCCCCCCCCSc1nc(NCCCCCCCCC)nc(NCCN2CCCC2)n1 [S10N9 D3] | 4.9% | –
24 | CCCCCCCSc1nc(NCCN2CCCCC2)nc(SCCCCCC)n1 [S6S7 D4] | 2.0% | –

Row | Structure (SMILES) | Absolute DNA transfection efficiency in HEK293 cells [1] | Absolute DNA transfection efficiency in HEK293 cells (HEK293 cells, lipid/DOPE liposome with 75 ng plasmid DNA (psin-EGFP-IRES-Puro), number of cells expressing GFP divided by total number of nuclei (Hoechst))
25 | CCCCCCCCSc1nc(NCCN2CCCC2)nc(SCCCCCC)n1 [S6S8 D3] | 2.8% | –
26 | CCCCCCCCCCCSc1nc(NCCCCCCC)nc(NCCN(CC)CC)n1 [S11N7 D7] | 11.6% | –
27 | CCCCCCCCCCCCNc1nc(NCCN2CCOCC2)nc(SCCCCCCCCCCCC)n1 [S12N12 D2] | 0.0% | –
28 | CCCCCCCCCCCCCCCNc1nc(NCCN(CC)CC)nc(SCCCCCCCCCC)n1 [S10N15 D7] | 1.7% | –
29 | CCCCCCCCCCCCCCCCCCNc1nc(NCCN2CCCCC2)nc(SCCCCCCCCCCCCCCCC)n1 [S16N18 D4] | 0.2% | –
30 | CCCCCCCCCCCCCCCCCCSc1nc(NCCCCCC)nc(NCCN2CCCCC2)n1 [S18N6 D4] | 7.2% | –
31 | CCCCCCCCSc1nc(NCCCCCC)nc(NCCCN2CCOCC2)n1 [S8N6 D8] | 0.0% | –
32 | CCCCCCCCCCCCCNc1nc(NCCCN(C)C)nc(SCCCCCC)n1 [S6N13 D6] | 12.9% | –
33 | CCCCCCCCCCCCCCCSc1nc(NCCCCCCCCCCCC)nc(NCC2CCN(C)CC2)n1 [S15N12 D10] | 4.3% | –
34 | CCCCCCCCCCCCCCSc1nc(NCCCCCCCC)nc(NCCCN2CCN(C)CC2)n1 [S14N8 D9] | 15.7% | –
35 | CCCCCCCCCCCCCCCCCCSc1nc(NCCCCCCCCCCCC)nc(NCCCN(C)C)n1 [S18N12 D6] | 0.5% | –
36 | CCCCCCCCCCCCCNc1nc(NCCN(C)C)nc(SCCCCCCCCCC)n1 [S10N13 D1] | 6.1% | –
37 | CCCCCCCCCCCNc1nc(NCCN2CCCCC2)nc(SCCCCCCCCCC)n1 [S10N11 D4] | 8.7% | –
38 | CCCCCCCCCCCCCCCCSc1nc(NCCCN2CCN(C)CC2)nc(N(CCCCCCCCCCCC)CCCCCCCCCCCC)n1 [S16^2N12 D9] | 0.6% | –
39 | CCCCCCCCCCCCNc1nc(NCCCN2CCN(C)CC2)nc(SCCCCCCCCCCC)n1 [S11N12 D9] | 5.9% | –
40 | CCCCCCCCCCCCNc1nc(NCCN(CC)CC)nc(SCCCCCCCC)n1 [S8N12 D7] | 9.5% | –
41 | CCCCCCCCCSc1nc(NCCCN(C)C)nc(SCCCCCCC)n1 [S7S9 D6] | 3.4% | –
42 | CCCCCCCCCCCCCCCCNc1nc(NCC2CCN(C)CC2)nc(SCCCCCCCCCCCCCCCC)n1 [S16N16 D10] | 0.2% | –
43 | CCCCCCCCCCCCCCCCCCSc1nc(NCCCCCCCCCCCCCCC)nc(NCCN(C)C)n1 [S18N15 D1] | 0.2% | –
44 | CCCCCCCCCCSc1nc(NCCCCCC)nc(NCCN2CCOCC2)n1 [S10N6 D2] | 0.5% | –
45 | CCCCCCCCCCCCNc1nc(NCCN2CCOCC2)nc(SCCCCCC)n1 [S6N12 D2] | 0.9% | –
46 | CCCCCCCCCCCCSc1nc(NCCN(C)C)nc(SCCCCCCCC)n1 [S8S12 D1] | 10.7% | –
47 | CCCCCCCCCNc1nc(NCC2CCN(C)CC2)nc(SCCCCCCC)n1 [S7N9 D10] | 15.0% | –
48 | CCCCCCCCCCCCN(CCCCCCCCCCCC)c1nc(NCCN2CCCC2)nc(SCCCCCCCCCCC)n1 [S11^2N12 D3] | 0.0% | –

Row | Structure (SMILES) | Absolute DNA transfection efficiency in HEK293 cells [1] | Absolute DNA transfection efficiency in HEK293 cells (HEK293 cells, lipid/DOPE liposome with 75 ng plasmid DNA (psin-EGFP-IRES-Puro), number of cells expressing GFP divided by total number of nuclei (Hoechst))
49 | CCCCCCCCCCCCCCCCNc1nc(NCCN2CCN(C)CC2)nc(SCCCCCCCCCCCCCC)n1 [S14N16 D5] | 0.9% | –
50 | CCCCCCCNc1nc(NCCN(C)C)nc(SCCCCCCC)n1 [S7N7 D1] | 23.6% | –
51 | CCCCCCCCCCCCCCCCCCSc1nc(NCCCCCCCCCCCCCCCC)nc(NCCN2CCCC2)n1 [S18N16 D3] | 0.1% | –
52 | CCCCCCCCCCCSc1nc(NCCCCCCCCC)nc(NCC2CCN(C)CC2)n1 [S11N9 D10] | 32.5% | –
53 | CCCCCCCCCCCSc1nc(NCCN2CCCC2)nc(SCCCCCCC)n1 [S7S11 D3] | 9.7% | –
54 | CCCCCCCCCCCCCCSc1nc(NCCCCCCCCCCCC)nc(NCC2CCN(C)CC2)n1 [S14N12 D10] | 5.8% | –
55 | CCCCCCCCCCCCCCCCCCSc1nc(NCCN(C)C)nc(N(CCCCCCCCCCCC)CCCCCCCCCCCC)n1 [S18^2N12 D1] | 0.0% | –
56 | CCCCCCCCCCSc1nc(NCCCCCC)nc(NCC2CCN(C)CC2)n1 [S10N6 D10] | 0.9% | –
57 | CCCCCCCCCNc1nc(NCCN2CCCC2)nc(SCCCCCC)n1 [S6N9 D3] | 0.4% | –
58 | CCCCCCCCCCCCNc1nc(NCCN2CCCCC2)nc(SCCCCCCCCCCC)n1 [S11N12 D4] | 3.4% | –
59 | CCCCCCCCCCCCSc1nc(NCCCCCCC)nc(NCCN2CCOCC2)n1 [S12N7 D2] | 0.1% | –
60 | CCCCCCCCNc1nc(NCC2CCN(C)CC2)nc(SCCCCCCCC)n1 [S8N8 D10] | 6.1% | –
61 | CCCCCCCCCCCCCCSc1nc(NCCCCCC)nc(NCCN(CC)CC)n1 [S14N6 D7] | 20.3% | –
62 | CCCCCCCCCCSc1nc(NCCCCCCCC)nc(NCCN2CCN(C)CC2)n1 [S10N8 D5] | 13.2% | –
63 | CCCCCCCCCCCCN(CCCCCCCCCCCC)c1nc(NCCN2CCN(C)CC2)nc(SCCCCCCCCCC)n1 [S10^2N12 D5] | 0.9% | –
64 | CCCCCCCCCCCCCCCCCCNc1nc(NCCN2CCCC2)nc(SCCCCCCCCCCCCCCC)n1 [S15N18 D3] | 0.7% | –
65 | CCCCCCCSc1nc(NCCCCCC)nc(NCCCN2CCOCC2)n1 [S7N6 D8] | 4.7% | –
66 | CCCCCCCCCNc1nc(NCCCN2CCN(C)CC2)nc(SCCCCCCCCC)n1 [S9N9 D9] | 50.7% | –
67 | CCCCCCCCCCCCCCCNc1nc(NCCN(C)C)nc(SCCCCCCCCC)n1 [S9N15 D1] | 29.8% | –
68 | CCCCCCCCCCCCN(CCCCCCCCCCCC)c1nc(NCCCCCCCCCCC)nc(NCCN2CCOCC2)n1 [Compound N112N12D2] | – | 0.0%
69 | CCCCCCCCCCCCCCCCCCNc1nc(NCCN(C)C)nc(SCCCCCCCCCCCCCCCCCC)n1 [S18N18 D1] | 0.1% | –
70 | CCCCCCCCCCCCN(CCCCCCCCCCCC)c1nc(NCCN2CCCC2)nc(SCCCCCCCC)n1 [S8^2N12 D3] | 0.1% | –
